Laboratory results reported in US20230250436A1, “NUCLEIC ACID THAT INTERACTS WITH A RECEPTOR FOR ENDOCRINE DISRUPTING CHEMICALS AND USE THEREOF” (KUMIAI CHEMICAL INDUSTRY CO., LTD., priority 2020, published 2023).

Test system: juvenile hormone receptor of Daphnia magna (DampaMET)
Experiment: Yeast reporter (β-galactosidase) assay, transformants with DampaMET and DampaSRC
Assay type: cell-based
Protocol: Subsequently, a reporter plasmid prepared by inserting the nucleotide sequence shown in SEQ ID NO: 2 into a yeast comprising the DampaMET plasmid and the DampaSRC plasmid introduced thereinto by the lithium acetate method. Thus, Yeast 1 of Invention was obtained. In the same manner, Yeasts 2 to 38 of Invention each comprising the response element according to the present invention and Control yeasts 1 to 9 shown in Table 3 were prepared.
With the use of the Yeast 1 of Invention, reporter activity to methyl farnesoate as a juvenile hormone substance was measured. At the outset, the Yeast 1 of Invention was subjected to pre-culture at 30° C. for 18 hours using the pre-culture medium shown in Table 1 until the turbidity (O.D. 595) of the pre-culture medium reached approximately 0.1. The solution of the pre-cultured cells (10 μl) and 1 μl of the solution of methyl farnesoate diluted to various concentrations with dimethyl sulfoxide (DMSO) were mixed with 90 μl of the main culture solution shown in Table 4 in a 96-well plate, and the mixture was subjected to static culture at 30° C. for 18 hours to prepare a reaction solution. The resultant was designated as a test group.
A reaction solution prepared with the addition of 1 μl of DMSO instead of a diluted methyl farnesoate solution was designated as a control group. Fractions of 10 μl each were collected from the reaction solutions and dispensed into each well of another 96-well plate. Thereafter, 100 μl of an assay reagent comprising a lytic solution (Z buffer: 60 mM Na2HPO4, 40 mM NaH2PO4, 1 mM MgCl2, 10 mM KCl, 2 mM dithiothreitol, 0.20% N-lauroylsarcosine sodium salt) mixed with 1 mg/ml ONPG (orthonitrophenylgalactopyranoside) was dispensed into each well, and the reaction was allowed to proceed at 37° C. for 30 minutes. Thereafter, the absorbance (O.D. 405) and the turbidity (O.D. 595) of the reaction solutions were assayed at the wavelength of 405 nm using a microplate reader (tradename: iMark microplate reader, Bio-Rad Laboratories). The increase of induction was calculated in accordance with the following formula.
The increase of induction is described in Ito-Harashima S et al., FEBS Open Bio., 7 (7): pp. 995-1008, 2017. When the increase of induction is positive, the transformant is determined to have reporter activity to the substance tested. The test was performed once or repeated 3 times, 5 times, or 15 times, and the average increase of induction was calculated. The control yeast 1 was treated in the same manner and reporter activity was compared.
In the same manner as in Test Example 1, the Yeasts 2, 3, 4, 5, 6, 7, 9, 10, 11, 12, 13, 14, 15, 16, 17, 18, 19, and 20 of Invention were subjected to assays of reporter activity to methyl farnesoate. The test was performed in accordance with Test Example 1, and reporter activity of the yeasts indicated above was compared with that of the control yeasts 2, 3, and 4.
With the use of the control yeast 7 comprising a different nucleotide sequence of the C-box (CACGCG) in the response element, the control yeast 8 comprising a different nucleotide sequence of the E-box (CACGTG), and the control yeast 9 comprising different nucleotide sequences of the C-box and the E-box from the relevant nucleotide sequences of the Yeast 4 of Invention, the influence of a core sequence on reporter activity to methyl farnesoate was evaluated. The test was performed in accordance with Test Example 1.
With the use of the Yeast 4 and the Yeast 8 of the present Invention, reporter activity to sex hormones; i.e., 17β-estradiol and testosterone, insect juvenile hormones; i.e., juvenile hormone III, and chemical substances suspected of having endocrine disrupting actions, such as 4-nonyl phenol, bisphenol A, 1,1,1-trichloro-2,2-bis(4-chlorophenyl)ethane (DDT), 2,2-bis(4-chlorophenyl)-1,1-dichloroethylene (DDE), and dieldrin, was assayed. The test was performed in accordance with Test Example 1. All the test substances were treated at 10 μM. […]

## COC(=O)/C=C(\C)CC/C=C(\C)CCC=C(C)C [methyl farnesoate]
Control yeast 1 (cacgcggcggcacgtg x1), 100 pM
  increase of induction: 0.01
Control yeast 1 (cacgcggcggcacgtg x1), 1 nM
  increase of induction: 0.00
Control yeast 2 (cacgcggcggcacgtg x2), 10 nM
  increase of induction: −0.29
Control yeast 2 (cacgcggcggcacgtg x2), 100 nM
  increase of induction: −0.27
Control yeast 2 (cacgcggcggcacgtg x2), 1 μM
  increase of induction: −0.34
Control yeast 2 (cacgcggcggcacgtg x2), 10 μM
  increase of induction: −0.21
Control yeast 2 (cacgcggcggcacgtg x2), 100 μM
  increase of induction: −0.14
Control yeast 3 (cacgcggcggcacgtg x3), 10 nM
  increase of induction: −0.12
Control yeast 3 (cacgcggcggcacgtg x3), 100 nM
  increase of induction: −0.21
Control yeast 3 (cacgcggcggcacgtg x3), 1 μM
  increase of induction: −0.27
Control yeast 3 (cacgcggcggcacgtg x3), 10 μM
  increase of induction: −0.17
Control yeast 3 (cacgcggcggcacgtg x3), 100 μM
  increase of induction: −0.17
Control yeast 4 (cacgcggcggcacgtg x4), 10 nM
  increase of induction: −0.84
Control yeast 4 (cacgcggcggcacgtg x4), 100 nM
  increase of induction: −1.49
Control yeast 4 (cacgcggcggcacgtg x4), 1 μM
  increase of induction: −1.82
Control yeast 4 (cacgcggcggcacgtg x4), 10 μM
  increase of induction: −1.05
Control yeast 4 (cacgcggcggcacgtg x4), 100 μM
  increase of induction: −2.06
Control yeast 7 (SEQ ID NO: 25 x4, different C-box), 100 nM
  increase of induction: −0.42
Control yeast 7 (SEQ ID NO: 25 x4, different C-box), 10 μM
  increase of induction: −0.12
Control yeast 8 (SEQ ID NO: 28 x4, different E-box), 100 nM
  increase of induction: 0.00
Control yeast 8 (SEQ ID NO: 28 x4, different E-box), 10 μM
  increase of induction: −0.02
Control yeast 9 (SEQ ID NO: 31 x4, different C-box and E-box), 100 nM
  increase of induction: −0.42
Control yeast 9 (SEQ ID NO: 31 x4, different C-box and E-box), 10 μM
  increase of induction: −0.12
Yeast 1 of Invention (SEQ ID NO: 2 x1), 100 pM
  increase of induction: 0.10
Yeast 1 of Invention (SEQ ID NO: 2 x1), 1 nM
  increase of induction: 0.08
Yeast 2 of Invention (SEQ ID NO: 2 x2), 10 nM
  increase of induction: 0.54
Yeast 2 of Invention (SEQ ID NO: 2 x2), 100 nM
  increase of induction: 1.26
Yeast 2 of Invention (SEQ ID NO: 2 x2), 1 μM
  increase of induction: 1.45
Yeast 2 of Invention (SEQ ID NO: 2 x2), 10 μM
  increase of induction: 1.64
Yeast 2 of Invention (SEQ ID NO: 2 x2), 100 μM
  increase of induction: 1.57
Yeast 3 of Invention (SEQ ID NO: 2 x3), 10 nM
  increase of induction: 2.05
Yeast 3 of Invention (SEQ ID NO: 2 x3), 100 nM
  increase of induction: 4.35
Yeast 3 of Invention (SEQ ID NO: 2 x3), 1 μM
  increase of induction: 4.45
Yeast 3 of Invention (SEQ ID NO: 2 x3), 10 μM
  increase of induction: 4.07
Yeast 3 of Invention (SEQ ID NO: 2 x3), 100 μM
  increase of induction: 4.29
Yeast 4 of Invention (SEQ ID NO: 2 x4), 10 nM, Test Example 2
  increase of induction: 5.13
Yeast 4 of Invention (SEQ ID NO: 2 x4), 100 nM, Test Example 2
  increase of induction: 7.55
Yeast 4 of Invention (SEQ ID NO: 2 x4), 100 nM, Test Example 3
  increase of induction: 0.42
Yeast 4 of Invention (SEQ ID NO: 2 x4), 1 μM, Test Example 2
  increase of induction: 7.12
Yeast 4 of Invention (SEQ ID NO: 2 x4), 10 μM, Test Example 2
  increase of induction: 7.44
Yeast 4 of Invention (SEQ ID NO: 2 x4), 10 μM, Test Example 3
  increase of induction: 0.51
Yeast 4 of Invention (SEQ ID NO: 2 x4), 100 μM, Test Example 2
  increase of induction: 7.47
Yeast 5 of Invention (SEQ ID NO: 2 x5), 10 nM
  increase of induction: 1.33
Yeast 5 of Invention (SEQ ID NO: 2 x5), 100 nM
  increase of induction: 3.29
Yeast 5 of Invention (SEQ ID NO: 2 x5), 1 μM
  increase of induction: 3.72
Yeast 5 of Invention (SEQ ID NO: 2 x5), 10 μM
  increase of induction: 3.76
Yeast 5 of Invention (SEQ ID NO: 2 x5), 100 μM
  increase of induction: 4.05
Yeast 6 of Invention (SEQ ID NO: 5 x3), 10 nM
  increase of induction: 0.33
Yeast 6 of Invention (SEQ ID NO: 5 x3), 100 nM
  increase of induction: 1.19
Yeast 6 of Invention (SEQ ID NO: 5 x3), 1 μM
  increase of induction: 1.18
Yeast 6 of Invention (SEQ ID NO: 5 x3), 10 μM
  increase of induction: 1.33
Yeast 6 of Invention (SEQ ID NO: 5 x3), 100 μM
  increase of induction: 1.33
Yeast 7 of Invention (SEQ ID NO: 8 x3), 10 nM
  increase of induction: 0.06
Yeast 7 of Invention (SEQ ID NO: 8 x3), 100 nM
  increase of induction: 0.26
Yeast 7 of Invention (SEQ ID NO: 8 x3), 1 μM
  increase of induction: 0.32
Yeast 7 of Invention (SEQ ID NO: 8 x3), 10 μM
  increase of induction: 0.36
Yeast 7 of Invention (SEQ ID NO: 8 x3), 100 μM
  increase of induction: 0.34
Yeast 9 of Invention (SEQ ID NO: 34 x1), 100 nM
  increase of induction: 0.19
Yeast 9 of Invention (SEQ ID NO: 34 x1), 10 μM
  increase of induction: 0.16
Yeast 10 of Invention (SEQ ID NO: 34 x2), 100 nM
  increase of induction: 0.08
Yeast 10 of Invention (SEQ ID NO: 34 x2), 10 μM
  increase of induction: 0.20
Yeast 11 of Invention (SEQ ID NO: 34 x3), 100 nM
  increase of induction: 0.22
Yeast 11 of Invention (SEQ ID NO: 34 x3), 10 μM
  increase of induction: 0.24
Yeast 12 of Invention (SEQ ID NO: 34 x4), 100 nM
  increase of induction: 1.43
Yeast 12 of Invention (SEQ ID NO: 34 x4), 10 μM
  increase of induction: 2.55
Yeast 13 of Invention (SEQ ID NO: 34 x5), 10 μM
  increase of induction: 0.09
Yeast 14 of Invention (SEQ ID NO: 8 x1), 10 μM
  increase of induction: 0.09
Yeast 15 of Invention (SEQ ID NO: 8 x2), 100 nM
  increase of induction: 0.09
Yeast 15 of Invention (SEQ ID NO: 8 x2), 10 μM
  increase of induction: 0.16
Yeast 16 of Invention (SEQ ID NO: 8 x4), 100 nM
  increase of induction: 0.65
Yeast 16 of Invention (SEQ ID NO: 8 x4), 10 μM
  increase of induction: 1.32
Yeast 17 of Invention (SEQ ID NO: 37 x1), 100 nM
  increase of induction: 0.06
Yeast 17 of Invention (SEQ ID NO: 37 x1), 10 μM
  increase of induction: 0.09
Yeast 18 of Invention (SEQ ID NO: 37 x2), 100 nM
  increase of induction: 0.10
Yeast 19 of Invention (SEQ ID NO: 37 x3), 100 nM
  increase of induction: 1.53
Yeast 19 of Invention (SEQ ID NO: 37 x3), 10 μM
  increase of induction: 2.27
Yeast 20 of Invention (SEQ ID NO: 37 x4), 100 nM
  increase of induction: 1.55
Yeast 20 of Invention (SEQ ID NO: 37 x4), 10 μM
  increase of induction: 1.85
Yeast 25 of Invention (SEQ ID NO: 43 x1), 100 nM
  increase of induction: 0.06
Yeast 25 of Invention (SEQ ID NO: 43 x1), 10 μM
  increase of induction: 0.15
Yeast 26 of Invention (SEQ ID NO: 43 x2), 100 nM
  increase of induction: 0.35
Yeast 26 of Invention (SEQ ID NO: 43 x2), 10 μM
  increase of induction: 0.38
Yeast 27 of Invention (SEQ ID NO: 43 x3), 100 nM
  increase of induction: 0.03
Yeast 27 of Invention (SEQ ID NO: 43 x3), 10 μM
  increase of induction: 0.64
Yeast 28 of Invention (SEQ ID NO: 43 x4), 100 nM
  increase of induction: 1.87
Yeast 28 of Invention (SEQ ID NO: 43 x4), 10 μM
  increase of induction: 2.51
Yeast 29 of Invention (SEQ ID NO: 46 x1), 100 nM
  increase of induction: 0.07
Yeast 29 of Invention (SEQ ID NO: 46 x1), 10 μM
  increase of induction: 0.07
Yeast 30 of Invention (SEQ ID NO: 46 x2), 100 nM
  increase of induction: 0.16
Yeast 30 of Invention (SEQ ID NO: 46 x2), 10 μM
  increase of induction: 0.07
Yeast 31 of Invention (SEQ ID NO: 46 x3), 100 nM
  increase of induction: 0.09
Yeast 31 of Invention (SEQ ID NO: 46 x3), 10 μM
  increase of induction: 0.23
Yeast 32 of Invention (SEQ ID NO: 49 x1), 100 nM
  increase of induction: 0.11
Yeast 32 of Invention (SEQ ID NO: 49 x1), 10 μM
  increase of induction: 0.31
Yeast 33 of Invention (SEQ ID NO: 49 x2), 100 nM
  increase of induction: 0.42
Yeast 33 of Invention (SEQ ID NO: 49 x2), 10 μM
  increase of induction: 0.22
Yeast 34 of Invention (SEQ ID NO: 49 x3), 100 nM
  increase of induction: 0.66
Yeast 34 of Invention (SEQ ID NO: 49 x3), 10 μM
  increase of induction: 2.15
Yeast 35 of Invention (SEQ ID NO: 49 x4), 100 nM
  increase of induction: 1.44
Yeast 35 of Invention (SEQ ID NO: 49 x4), 10 μM
  increase of induction: 1.05
